Experimental findings from US20090211893A1, “Photo-Activatable Amino Acids” (priority 2005, published 2009) are described below.

The subject of experiment [1] is COS7 cells. In words: Incorporation of [1-14C]photo-Met and [3H]Phe into newly synthesized protein. The experiment is classed as cell-based, monkey. The method, then: Cells were washed 6 times with PBS and lysed in 0.5% Triton X-100, 0.2% sodium deoxycholate. Aggregated DNA was removed, protein was precipitated^43, the pellet was redissolved in 0.3 ml 0.5% SDS and subjected to a second round of precipitation. […] The dried pellet was redissolved and processed for scintillation counting (data of Table 1 and FIG. 4b) or processed as follows for amino acid analysis (FIG. 2b): the pellet was dissolved in 600 µl 50 mM NH4HCO3, 0.5% SDS, 3 mM CaCl2 containing 0.25 mg pronase (Roche) followed by incubation at 37° C. for 20 h. The sample was lyophilized, dissolved in 600 μl of 7 N HCl containing 4 mg of glutamic acid and 6 mg of photo-Met and heated to 70° C. for 24 h. A Dowex 50WX8 column (1.6×24 cm) was prepared^18 and equilibrated with 0.1 M sodium citrate pH 3.8. The sample was concentrated to 50 μl in a speed-vak, diluted to 1 ml with 0.1 M sodium citrate pH 3.8, and loaded onto the column. The column was eluted at 24° C. at a flow rate of 20 ml/h with 70 ml 0.1 M sodium citrate pH 3.8, 26 ml 0.1 M sodium citrate pH 4.3 and 100 ml of 0.1 M sodium citrate pH 4.5. Fractions of 3 ml were collected and assayed for absorbance at 350 nm, radioactivity by scintillation counting, and amino groups by the fluorescamine method^44.
To decrease competition for activation by tRNA synthetases, media devoid of the structurally related amino acids Leu and Met (LM-2) or, for some experiments, devoid of Leu, Met, Ile and Val (LM-4) were used. Proteins incorporated radioactivity as shown by autoradiography after separation by SDS-PAGE (FIG. 2a, lane 3). […] 88% of the radioactivity in the labeled proteins was intact [1-^14C]photo-Met (FIG. 2b, photo-Met). A small peak eluting slightly earlier than glutamic acid (FIG. 2 B, Glu) contained 7% of the radioactivity. This peak was also observed if free [1-^14C]photo-Met was heated with HCl under the conditions of the hydrolysis (data not shown) and therefore represents a product of thermal decomposition of the amino acid. Under the conditions employed, radioactivity originating from degradation/re-integration would be expected to appear as aspartate and glutamate (oxidative release of [^14C]CO2, metabolism via pyruvate carboxylase, citric acid cycle and transamination to Gln and Asn that will be hydrolyzed to Glu and Asp by hot HCl). However, no radioactivity was incorporated via this pathway. We conclude that at least 95% of incorporated radioactivity represents intact [1-^14C]photo-Met. To obtain quantitative data on the frequency of incorporation of photo-Met into newly synthesized protein, we performed co-labeling with [1-^14C]photo-Met and [^3H]Phe. […] Two in three hundred amino acids in newly synthesized protein will be photo-Met.

Experiment [2] relates to COS7 cells. As to the kind of experiment: Competition of [1-14C]photo-Met incorporation by natural amino acids. The class given is cell-based, monkey. To be noted: 1.7 mM [1-14C]photo-Met, 3 mM competing amino acid. The method, then:
FIG. 4: Specificity of incorporation and cross-linking by photo-Met and photo-Leu. COS7 cells were transfected with HA-tagged human PGRMC1 and were grown in LM-4 in the absence or presence of photo-Leu (A) or photo-Met (B) with addition of 3 mM of the indicated competing amino acid. cross-linked products formed after UV-irradiation were detected by SDS-PAGE followed by western blotting against the HA-epitope. (C) COS7 cells were grown in the presence of 1.7 mM [1-^14C]photo-Met, a constant trace amount of [^3H]Phe and 3 mM of competing unlabeled amino acids as indicated in the legend. Protein was precipitated and protein-bound radioactivity was determined by scintillation counting. […] The control value obtained in the absence of competing amino acid (con) is set to 100. Data are average±SD of triplicate determinations.
COS7 cells were grown for 20 h in LM-2 containing radiolabeled amino acids ([1-^14C]photo-Met and [^3H]Phe). Cells were washed 6 times with PBS and lysed in 0.5% Triton X-100, 0.2% sodium deoxycholate. Aggregated DNA was removed, protein was precipitated^43, the pellet was redissolved in 0.3 ml 0.5% SDS and subjected to a second round of precipitation. […] Fractions of 3 ml were collected and assayed for absorbance at 350 nm, radioactivity by scintillation counting, and amino groups by the fluorescamine method^44. […]

As for `CC1(CCC(N)[14C](=O)O)N=N1` (racemic) [[1-^14C]photo-Met, DL-[1-^14C]-2-amino-5,5′-azi-hexanoic acid], the “Relative frequency (of total amino acids in newly synthesized protein)” value with COS7 cells [1] (COS7 cells grown 22 h in LM-2) came to 0.7%. Moreover, in the experiment with COS7 cells [1] (COS7 cells grown 22 h in LM-2, average ± SD of triplicate), the Incorporated amino acid is listed as 0.50 ± 0.05 nmol/dish. For the same molecule, the Protein-bound activity with COS7 cells [1] (COS7 cells grown 22 h in LM-2 with [3H]Phe and [1-14C]photo-Met, average ± SD of triplicate) amounted to 2.34 ± 0.23 nCi/dish. Moreover, in the experiment with COS7 cells [1] (co-labeling with [1-14C]photo-Met and [3H]Phe), the “frequency of incorporation relative to that of phenylalanine” value was determined as 14%. Moreover, in the experiment on COS7 cells [2], the “competition of incorporation by Met and Leu” value is “strongly competed”; the “effect of Val and Ile on incorporation” value is recorded as “slightly stimulated incorporation”.
